Values quoted from earlier work as cited in publication PMC12839115, “2-Arylbenzofurans as Selective Cholinesterase Inhibitors: Design, Synthesis, and Evaluation as Alzheimer’s Disease Agents” (Biomolecules, 2026).

Target: T1, BChE (EC 3.1.1.8) from equine serum (Equus caballus, UniProt P81908)
T1 construct: BChE (EC 3.1.1.8) from equine serum were employed; from tissue; host or cells: equine serum
T1 sequence (P81908 whole entry): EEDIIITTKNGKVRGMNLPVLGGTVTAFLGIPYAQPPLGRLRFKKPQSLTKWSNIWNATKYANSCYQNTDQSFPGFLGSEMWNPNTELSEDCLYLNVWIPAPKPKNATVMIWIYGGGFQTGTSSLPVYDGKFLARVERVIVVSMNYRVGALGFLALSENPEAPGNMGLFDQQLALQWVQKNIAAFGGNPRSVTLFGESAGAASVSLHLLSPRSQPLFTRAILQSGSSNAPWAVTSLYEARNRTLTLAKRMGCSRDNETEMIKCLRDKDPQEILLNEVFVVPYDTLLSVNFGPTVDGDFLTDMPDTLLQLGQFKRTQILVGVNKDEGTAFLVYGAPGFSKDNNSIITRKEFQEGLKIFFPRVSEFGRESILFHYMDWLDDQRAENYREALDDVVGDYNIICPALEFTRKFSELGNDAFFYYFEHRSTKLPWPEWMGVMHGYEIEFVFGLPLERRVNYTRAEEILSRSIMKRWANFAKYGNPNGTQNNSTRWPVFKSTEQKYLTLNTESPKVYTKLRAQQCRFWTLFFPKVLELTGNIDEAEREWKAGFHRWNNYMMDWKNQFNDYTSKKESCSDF

Compound	IC50 [µM]
Oc1cccc(-c2cc3cccc(Br)c3o2)c1 [C00010]	7.96 ± 0.28
Oc1cccc(-c2cc3cccc(Cl)c3o2)c1 [C00004]	13.4 ± 2.57
